Reference: patent publication US20260015358A1, “BICYCLIC DERIVATIVES, COMPOSITIONS AND USES THEREOF” (Danatlas Pharmaceuticals Co., Ltd., priority 2023, published 2026)

Key:
[1] = target: T1, WRN [UniPro: Q14191 (WRN_HUMAN), N500-C946] (Homo sapiens (Human), UniProt Q14191); test: WRN unwinding assay (FORKF DNA, fluorescence); format: biochemical; conditions: Table 14
[2] = target: T1, WRN [UniPro: Q14191 (WRN_HUMAN), N500-C946]; test: WRN ATPase assay (ADP-Glo); format: biochemical; conditions: WRN enzymatic activity assay

T1 sequence (Q14191 500-946): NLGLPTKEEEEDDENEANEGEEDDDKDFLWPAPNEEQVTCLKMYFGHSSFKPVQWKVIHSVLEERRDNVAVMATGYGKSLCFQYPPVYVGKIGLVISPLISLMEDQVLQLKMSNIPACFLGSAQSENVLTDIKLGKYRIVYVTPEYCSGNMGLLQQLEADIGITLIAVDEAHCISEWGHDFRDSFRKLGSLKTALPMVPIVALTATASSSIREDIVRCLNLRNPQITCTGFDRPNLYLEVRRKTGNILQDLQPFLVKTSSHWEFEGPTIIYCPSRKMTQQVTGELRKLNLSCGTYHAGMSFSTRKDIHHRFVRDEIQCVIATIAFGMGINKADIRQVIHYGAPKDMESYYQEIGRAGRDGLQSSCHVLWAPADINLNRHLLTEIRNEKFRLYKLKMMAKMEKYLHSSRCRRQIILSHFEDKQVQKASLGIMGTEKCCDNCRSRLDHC

| IC50 [1] [nM] | IC50 [2] [nM] | SMILES |
| --- | --- | --- |
| 100 to 1000 | < 100 | CCc1c(N2CCN(C(=O)c3c[nH]c(=O)[nH]c3=O)CC2)c(=O)n2nc(C3=CCOCC3)nc2n1CC(=O)Nc1ccc(C(F)(F)F)cc1Cl [Example 50, N-(2-Chloro-4-(trifluoromethyl)phenyl)-2-(2-(3,6-dihydro-2H-pyran-4-yl)-6-(4-(2,4-dioxo-1,2,3,4-tetrahydropyrimidine-5-carbonyl)piperazin-1-yl)-5-ethyl-7-oxo-[1,2,4]triazolo[1,5-a]pyrimidin-4(7H)-yl)acetamide] |
| < 100 | < 100 | CCc1c(N2CCN(C(=O)c3nnccc3O)CC2)c(=O)n2nc(C3=CCOCC3)nc2n1CC(=O)Nc1ccc(C(F)(F)F)cc1Cl [Example 82, N-(2-Chloro-4-(trifluoromethyl)phenyl)-2-(2-(3,6-dihydro-2H-pyran-4-yl)-5-ethyl-6-(4-(4-hydroxypyridazine-3-carbonyl)piperazin-1-yl)-7-oxo-[1,2,4]triazolo[1,5-a]pyrimidin-4(7H)-yl)acetamide] |
| > 1000 | > 1000 | CCNC(=NCCCN(C)C)N1CCN(c2c(CC)n(CC(=O)Nc3ccc(C(F)(F)F)cc3C)c3nc(C4=CCOCC4)nn3c2=O)CC1 [Example 5, 2-(2-(3,6-Dihydro-2H-pyran-4-yl)-6-(4-(N′-(3-(dimethylamino)propyl)-N-ethylcarbamimidoyl)piperazin-1-yl)-5-ethyl-7-oxo-[1,2,4]triazolo[1,5-a]pyrimidin-4(7H)-yl)-N-(2-methyl-4-(trifluoromethyl)phenyl)acetamide] |

The remaining lines, values behind:

| SMILES | IC50 [1] [nM] | IC50 [2] [nM] |
| --- | --- | --- |
| CCc1c(N2CCN(C(=O)C(=O)NC3CCCC3)CC2)c(=O)n2nc(C3=CCOCC3)nc2n1CC(=O)Nc1ccc(C(F)(F)F)cc1Cl [Example 357, 2-(4-(4-(2-((2-Chloro-4-(trifluoromethyl)phenyl)amino)-2-oxoethyl)-2-(3,6-dihydro-2H-pyran-4-yl)-5-ethyl-7-oxo-4,7-dihydro-[1,2,4]triazolo[1,5-a]pyrimidin-6-yl)piperazin-1-yl)-N-cyclopentyl-2-oxoacetamide] | 100 to 1000 | 100 to 1000 |
| CCc1c(N2CCN(C(=O)CNC(=O)c3ccccc3F)CC2)c(=O)n2nc(C3=CCOCC3)nc2n1CC(=O)Nc1ccc(C)s1 [Example 153, N-(2-(4-(2-(3,6-Dihydro-2H-pyran-4-yl)-5-ethyl-4-(2-((5-methylthiophen-2-yl)amino)-2-oxoethyl)-7-oxo-4,7-dihydro-[1,2,4]triazolo[1,5-a]pyrimidin-6-yl)piperazin-1-yl)-2-oxoethyl)-2-fluorobenzamide] | < 100 | 100 to 1000 |
| CCc1c(N2CCN(C(=O)c3nnc(Cl)cc3O)CC2)c(=O)n2nc(C3=CCOCC3)nc2n1CC(=O)Nc1ccc(C(F)(F)F)cc1Cl [Example 83, N-(2-Chloro-4-(trifluoromethyl)phenyl)-2-(6-(4-(6-chloro-4-hydroxypyridazine-3-carbonyl)piperazin-1-yl)-2-(3,6-dihydro-2H-pyran-4-yl)-5-ethyl-7-oxo-[1,2,4]triazolo[1,5-a]pyrimidin-4(7H)-yl)acetamide] | < 100 | < 100 |
| CCc1c(N2CCN(C(=O)c3nc4ccccc4cc3O)CC2)c(=O)n2nc(C3=CCOCC3)nc2n1CC(=O)Nc1ccc(C(F)(F)F)cc1Cl [Example 306, N-(2-Chloro-4-(trifluoromethyl)phenyl)-2-(2-(3,6-dihydro-2H-pyran-4-yl)-5-ethyl-6-(4-(3-hydroxyquinoline-2-carbonyl)piperazin-1-yl)-7-oxo-[1,2,4]triazolo[1,5-a]pyrimidin-4(7H)-yl)acetamide] | < 100 | < 100 |
| CCc1c(N2CCN(C(=O)c3cccc4cn[nH]c34)CC2)c(=O)n2nc(C3=CCOCC3)nc2n1CC(=O)Nc1ccc(C(F)(F)F)cc1Cl [Example 90, 2-(6-(4-(1H-Indazole-7-carbonyl)piperazin-1-yl)-2-(3,6-dihydro-2H-pyran-4-yl)-5-ethyl-7-oxo-[1,2,4]triazolo[1,5-a]pyrimidin-4(7H)-yl)-N-(2-chloro-4-(trifluoromethyl)phenyl)acetamide] | 100 to 1000 | < 100 |
